Assay [1] has as its system partial tear of the patellar tendon. The assay is described as follows: Patient case: oral atorvastatin for a partial tear of the patellar tendon in a hypercholesterolemic patient. Format: in vivo, human. Conditions: orally 20 mg once daily. The protocol: A person presents with a partial tear of the patellar tendon. Their orthopedist orders a standard lipid panel as part of their blood work. The orthopedist finds that the patient is hypercholesterolemic with a total cholesterol of almost 300 mg/DL. The orthopedist prescribes atorvastatin to be taken orally at a dose of 20 mg once daily.

The subject of assay [2] is partial rupture of achilles tendon. Put plainly: Patient case: oral rosuvastatin for a partial rupture of the achilles tendon in a hypercholesterolemic patient. Format: in vivo, human. Conditions: orally 10 mg once daily. The procedure: A diabetic presents with a partial rupture of their achilles tendon. Their orthopedist orders a standard lipid panel as part of their blood work. The orthopedist finds that the patient is hypercholesterolemic with a total cholesterol of 285 mg/DL. The orthopedist prescribes rosuvastatin to be taken orally at a dose of 10 mg once daily.

The structures appear in SMILES notation.

With `CC(C)c1c(C(=O)Nc2ccccc2)c(-c2ccccc2)c(-c2ccc(F)cc2)n1CC[C@@H](O)C[C@@H](O)CC(=O)O` [atorvastatin], the “recovery from partial tear of the patellar tendon” value in assay [1] (hypercholesterolemic person) was “markedly improved”. The cholesterol lowering entry in assay [1] (person, total cholesterol almost 300 mg/DL at presentation) is “lowering their cholesterol to acceptable levels”.

As for `CC(C)c1nc(N(C)S(C)(=O)=O)nc(-c2ccc(F)cc2)c1/C=C/[C@@H](O)C[C@@H](O)CC(=O)O` [rosuvastatin], the cholesterol lowering result in assay [2] (diabetic, total cholesterol 285 mg/DL at presentation) is on record as “lowering their cholesterol to acceptable levels”. In assay [2] (hypercholesterolemic diabetic), the “recovery from partial rupture of achilles tendon” value is recorded as “markedly improved”.
